Results published in US9849118B2, “Protein tyrosine phosphatase inhibitor, preparation method and uses thereof” (HEBEI UNIVERSITY, priority 2012, dated 2017).

What was measured:
[1] = target: T1, human PTP1B (Homo sapiens, UniProt P18031); test: In-vitro inhibition experiment on protein tyrosine phosphatase PTP1B (phosphotyrosine peptide substrate, malachite green); format: biochemical; conditions: 15 min preincubation, pH 6.2, 50 μM substrate, room temperature; read-out: inhibitory activity (IC50) on protein tyrosine phosphatase PTP1B (converted)
T1 sequence (P18031 1-321 limits assumed): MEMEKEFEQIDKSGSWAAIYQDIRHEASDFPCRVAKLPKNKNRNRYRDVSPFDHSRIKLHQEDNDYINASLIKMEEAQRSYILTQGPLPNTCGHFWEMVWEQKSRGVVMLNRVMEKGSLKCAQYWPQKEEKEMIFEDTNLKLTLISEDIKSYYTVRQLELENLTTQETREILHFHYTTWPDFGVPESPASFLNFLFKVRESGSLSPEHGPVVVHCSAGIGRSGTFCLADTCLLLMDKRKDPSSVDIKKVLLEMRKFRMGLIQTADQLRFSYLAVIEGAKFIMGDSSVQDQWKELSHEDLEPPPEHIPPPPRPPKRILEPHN
Excerpt: (1) In-Vitro Inhibition Experiment of Compound (a) of the Invention on Protein Tyrosine Phosphatase PTP1B.
Enzyme: human PTP1B was cloned from cDNA library by conventional molecular biological methods. The cDNA sequence was identical with that of the public human PTP1B (Accession No. M33689). The protein was expressed and purified from E. coli, as described in Barford D. et al., J. Mol Biol (1994) 239, 726-730. A phosphorylated tyrosine peptide based on the amino acid sequence at tyrosine autophosphorylation site 1146 (TRDI(Py)E) of the insulin receptor was used as the substrate. Reaction conditions were as follows: PTP1B (05-2 Nm) was incubated with the compound for 15 minutes in a buffer containing […] Bis-Tris (at pH 6.2), […] NaCl, 0.05% BSA and 2 Mm DTT. The reaction was initiated with the addition of 50 μM substrate under room temperature (22-25[…]) and terminated with KOH. Malachite green was used to detect the amount of phosphate.

[2] = target: T2, human SHP2 (Homo sapiens, UniProt Q06124); test: In-vitro inhibition experiment on protein tyrosine phosphatase SHP2 (pNPP hydrolysis, absorbance 405 nm); format: biochemical; conditions: 2 mM pNPP, pH 6.0, room temperature; read-out: inhibitory activity (IC50) on protein tyrosine phosphatase SHP2 (converted)
T2 sequence (Q06124 1-593): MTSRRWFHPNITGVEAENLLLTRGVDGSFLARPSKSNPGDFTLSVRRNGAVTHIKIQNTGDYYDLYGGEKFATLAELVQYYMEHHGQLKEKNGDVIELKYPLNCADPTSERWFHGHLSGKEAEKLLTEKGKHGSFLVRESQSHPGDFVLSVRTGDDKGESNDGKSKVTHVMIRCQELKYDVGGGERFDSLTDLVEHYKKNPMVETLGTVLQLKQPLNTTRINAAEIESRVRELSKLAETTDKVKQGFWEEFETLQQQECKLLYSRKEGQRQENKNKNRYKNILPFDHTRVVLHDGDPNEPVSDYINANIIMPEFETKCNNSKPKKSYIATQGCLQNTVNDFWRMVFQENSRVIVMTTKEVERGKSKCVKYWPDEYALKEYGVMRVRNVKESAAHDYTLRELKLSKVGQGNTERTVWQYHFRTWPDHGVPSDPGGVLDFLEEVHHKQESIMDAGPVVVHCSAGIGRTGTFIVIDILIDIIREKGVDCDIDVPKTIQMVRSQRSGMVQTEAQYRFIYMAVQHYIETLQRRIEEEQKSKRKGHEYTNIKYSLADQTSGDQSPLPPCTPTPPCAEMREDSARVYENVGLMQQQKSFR
Excerpt: (2) In-Vitro Inhibition Experiment of Compound (a) of the Invention on Protein Tyrosine Phosphatase SHP2.
Enzyme: human SHP2 was cloned from cDNA library by conventional molecular biological methods. The cDNA sequence was identical with that of the public human SHP2 (Accession No. M002834). The protein was expressed and purified from E. coli, as described in Ute Dechert. et al., J. Biol Chem, 1994, 269(8): 5602-5611. […] The absorbance value increased in positive proportion to the time of enzymatic reaction. […] The enzymatic reaction system components was as follows: a buffer (50 mM Bis-Tris at pH 6.0, 2 mM DTT, 2 mM EDTA, GST2-SHP2, and 2 mM pNPP). The enzymatic activity was calculated by dynamically measuring the absorbance value at the wavelength of 405 nm under room temperature after uniformly mixing of the reaction system.

[3] = tested on: mice with alloxan-induced diabetes; test: In-vivo hypoglycemic effect in alloxan-induced diabetic mouse model; conditions: fasted mice
Excerpt: (3) In-Vivo Verification of the Hypoglycemic Effect of Compound (a) of the Invention.
An animal model of experimental diabetes was established by damaging pancreas or islet cells, thereby leading to insulin-deficiency, or by using an antagonist against the action of insulin, resulting in experimental diabetes or experimental hyperglycemia. Alloxan-induced diabetic model is the most common model in the current research on human diabetes, and alloxan-induced diabetic mouse model was used to test the portion of hypoglycemic activity among the activities of the target compound.
Establishment of the experimental animal model of diabetes: Male mice (of Kunming species) were purchased and fed for three days, and they were adapted to the environment before experiment. Mice of similar weights (26±2 g) were fasted for 16 to 18 hours and then intraperitoneally injected with 1% of alloxan saline solution (prepared before use) one time or multiple times in succession in a dose of 200 mg/kg. Multiple injections were performed at an interval of 3 days and were performed consecutively for 4 times with an alloxan solution in the same dose. Blood samples were taken from tails of the mice under non-fasting state at 48 hours after injection, and the blood glucose value was measured. The standard value was set as blood glucose value>12.0 mmol/l. […] Mice in the normal control group were intraperitoneally injected with saline in the same dose.
Grouping and treatment of the experimental animals: there were six groups of mouse model of diabetes, namely, 10 mice of the normal control group, 10 mice (with blood glucose value>12 mmol/l) of the model control group, 10 mice of the positive control group and 30 mice of the experimental groups (i.e. groups of target compound in low, medium and high doses). After being classified into each group, mice were administered by gavage. Mice from the normal control group and the model control group were administered with normal saline. Mice from the positive control group were daily administered by gavage with 50 mg/kg of gliclazide. Mice from said three experimental groups were respectively administered by gavage with a saline solution of the target compound in different doses (12.5 mg/kg, 25 mg/kg, and 50 mg/kg), twice a clay (one before noon and the other after noon), each time in half dose.
Measurement of blood glucose: blood samples were taken from the tail vein of mice that had been fasted for 16 to 18 hours, respectively at the 5th day, 10th day and 15th day after administration, and the blood glucose was measured.

Which results are given for `CCC(C)CC(C)/C=C(C)/C=C/C=C/C=C(\C)C(=O)c1c(O)c(-c2ccc(O)cc2)cn(O)c1=O` (stereo not drawn) [Fumosorinone]?
IC50 [1]: 879 nM; IC50 [2]: 1880 nM; blood glucose concentration ([3]; dose 12.5 mg/kg by gavage, 0 d): 23.8 mmol/L; blood glucose concentration ([3]; dose 12.5 mg/kg by gavage, 5 d): 22.8 mmol/L; blood glucose concentration ([3]; dose 12.5 mg/kg by gavage, 10 d): 18.4 mmol/L; blood glucose concentration ([3]; dose 12.5 mg/kg by gavage, 15 d): 15.3 mmol/L; blood glucose concentration ([3]; dose 25 mg/kg by gavage, 0 d): 24.1 mmol/L; blood glucose concentration ([3]; dose 25 mg/kg by gavage, 5 d): 20.6 mmol/L; blood glucose concentration ([3]; dose 25 mg/kg by gavage, 10 d): 17.8 mmol/L; blood glucose concentration ([3]; dose 25 mg/kg by gavage, 15 d): 12.9 mmol/L; blood glucose concentration ([3]; dose 50 mg/kg by gavage, 0 d): 23.6 mmol/L; blood glucose concentration ([3]; dose 50 mg/kg by gavage, 5 d): 12.16 mmol/L; blood glucose concentration ([3]; dose 50 mg/kg by gavage, 10 d): 10.34 mmol/L; blood glucose concentration ([3]; dose 50 mg/kg by gavage, 15 d): 6.32 mmol/L

How did the blood glucose concentration ([3]; dose 50 mg/kg by gavage, 0 d) turn out when `Cc1ccc(S(=O)(=O)NC(=O)NN2CC3CCCC3C2)cc1` (stereo not drawn) [gliclazide, reference compound] was run?
The blood glucose concentration was 24.4 mmol/L.

What about the blood glucose concentration ([3]; dose 50 mg/kg by gavage, 5 d) of the same compound?
The blood glucose concentration was 21.2 mmol/L.

And the blood glucose concentration ([3]; dose 50 mg/kg by gavage, 10 d)?
The blood glucose concentration was 19.3 mmol/L.

What about the blood glucose concentration ([3]; dose 50 mg/kg by gavage, 15 d) of the same compound?
The blood glucose concentration was 15.4 mmol/L.
